Measurements taken from ChEMBL document CHEMBL5724914, “Linking interpersonal differences in gut microbiota composition and drug biotransformation activity” (2024).

Test: (§1) The drug is tested on Z-009 corresponding to pig gut metagenome with ENA study accession number: PRJEB37062 and ENA sample accession number: ERS12561809 for biotransformation under anaerobic condition. The drug concentrations were measured over 9 timepoints collected between 0 and 24 hours of incubation by liquid-chromatography-coupled mass spectrometry (LC–MS)
Details: 2 µM
Also: call rule not given here.

| Bacterial Biotransformation | Structure (SMILES) |
| --- | --- |
| Compound NOT metabolized | NC12CC3CC(CC(C3)C1)C2 [AMANTADINE] |
| Compound NOT metabolized | CN1CCc2c(c3ccccc3n2Cc2ccccc2)C1.CN1CCc2c(c3ccccc3n2Cc2ccccc2)C1.O=S(=O)(O)c1cccc2c(S(=O)(=O)O)cccc12 |
| Compound metabolized | COC1=CC(=O)C[C@@H](C)[C@]12Oc1c(Cl)c(OC)cc(OC)c1C2=O [GRISEOFULVIN] |

Second part, the compound before the results:

| Structure (SMILES) | Bacterial Biotransformation |
| --- | --- |
| CC(CN(C)C)CN1c2ccccc2CCc2ccccc21.O=C(O)/C=C\C(=O)O (stereo not given) [TRIMIPRAMINE MALEATE] | Compound NOT metabolized |
| CN1CCC(=C2c3ccccc3CCc3cccnc32)CC1.O=C(O)/C=C\C(=O)O.O=C(O)/C=C\C(=O)O [AZATADINE MALEATE] | Compound NOT metabolized |

Test: as §1, with “WLS-077” for “Z-009”, “human” for “pig”, “ERS12561750” for “ERS12561809”
Details: 2 µM

| Bacterial Biotransformation | Structure (SMILES) |
| --- | --- |
| Compound NOT metabolized | NC12CC3CC(CC(C3)C1)C2 [AMANTADINE] |
| Compound NOT metabolized | CN1CCc2c(c3ccccc3n2Cc2ccccc2)C1.CN1CCc2c(c3ccccc3n2Cc2ccccc2)C1.O=S(=O)(O)c1cccc2c(S(=O)(=O)O)cccc12 |
| Compound metabolized | COC1=CC(=O)C[C@@H](C)[C@]12Oc1c(Cl)c(OC)cc(OC)c1C2=O [GRISEOFULVIN] |

Continued, compound first:

| Structure (SMILES) | Bacterial Biotransformation |
| --- | --- |
| CC(CN(C)C)CN1c2ccccc2CCc2ccccc21.O=C(O)/C=C\C(=O)O (stereo not given) [TRIMIPRAMINE MALEATE] | Compound NOT metabolized |
| CN1CCC(=C2c3ccccc3CCc3cccnc32)CC1.O=C(O)/C=C\C(=O)O.O=C(O)/C=C\C(=O)O [AZATADINE MALEATE] | Compound NOT metabolized |

Test: as §1, with “WLS-069” for “Z-009”, “human” for “pig”, “ERS12561748” for “ERS12561809”
Details: 2 µM

| Bacterial Biotransformation | Structure (SMILES) |
| --- | --- |
| Compound NOT metabolized | NC12CC3CC(CC(C3)C1)C2 [AMANTADINE] |
| Compound NOT metabolized | CN1CCc2c(c3ccccc3n2Cc2ccccc2)C1.CN1CCc2c(c3ccccc3n2Cc2ccccc2)C1.O=S(=O)(O)c1cccc2c(S(=O)(=O)O)cccc12 |
| Compound metabolized | COC1=CC(=O)C[C@@H](C)[C@]12Oc1c(Cl)c(OC)cc(OC)c1C2=O [GRISEOFULVIN] |

Continued, compound first:

| Structure (SMILES) | Bacterial Biotransformation |
| --- | --- |
| CC(CN(C)C)CN1c2ccccc2CCc2ccccc21.O=C(O)/C=C\C(=O)O (stereo not given) [TRIMIPRAMINE MALEATE] | Compound metabolized |
| CN1CCC(=C2c3ccccc3CCc3cccnc32)CC1.O=C(O)/C=C\C(=O)O.O=C(O)/C=C\C(=O)O [AZATADINE MALEATE] | Compound NOT metabolized |

Test: as §1, with “WLS-006” for “Z-009”, “human” for “pig”, “ERS12561741” for “ERS12561809”
Details: 2 µM

| Bacterial Biotransformation | Structure (SMILES) |
| --- | --- |
| Compound NOT metabolized | NC12CC3CC(CC(C3)C1)C2 [AMANTADINE] |
| Compound NOT metabolized | CN1CCc2c(c3ccccc3n2Cc2ccccc2)C1.CN1CCc2c(c3ccccc3n2Cc2ccccc2)C1.O=S(=O)(O)c1cccc2c(S(=O)(=O)O)cccc12 |
| Compound metabolized | COC1=CC(=O)C[C@@H](C)[C@]12Oc1c(Cl)c(OC)cc(OC)c1C2=O [GRISEOFULVIN] |

The next lines start with the compound.

| Structure (SMILES) | Bacterial Biotransformation |
| --- | --- |
| CC(CN(C)C)CN1c2ccccc2CCc2ccccc21.O=C(O)/C=C\C(=O)O (stereo not given) [TRIMIPRAMINE MALEATE] | Compound metabolized |
| CN1CCC(=C2c3ccccc3CCc3cccnc32)CC1.O=C(O)/C=C\C(=O)O.O=C(O)/C=C\C(=O)O [AZATADINE MALEATE] | Compound NOT metabolized |

Details: human gut metagenome, 24 h, 2 µM

| Bacterial Biotransformation | Structure (SMILES) |
| --- | --- |
| Compound NOT metabolized | NC12CC3CC(CC(C3)C1)C2 [AMANTADINE] |
| Compound NOT metabolized | CN1CCc2c(c3ccccc3n2Cc2ccccc2)C1.CN1CCc2c(c3ccccc3n2Cc2ccccc2)C1.O=S(=O)(O)c1cccc2c(S(=O)(=O)O)cccc12 |
| Compound metabolized | COC1=CC(=O)C[C@@H](C)[C@]12Oc1c(Cl)c(OC)cc(OC)c1C2=O [GRISEOFULVIN] |

Further lines, the compound ahead of its results:

| Structure (SMILES) | Bacterial Biotransformation |
| --- | --- |
| CC(CN(C)C)CN1c2ccccc2CCc2ccccc21.O=C(O)/C=C\C(=O)O (stereo not given) [TRIMIPRAMINE MALEATE] | Compound metabolized |
| CN1CCC(=C2c3ccccc3CCc3cccnc32)CC1.O=C(O)/C=C\C(=O)O.O=C(O)/C=C\C(=O)O [AZATADINE MALEATE] | Compound NOT metabolized |

Details: human gut metagenome, 24 h, 2 µM
Remark: another data set of the same source

| Bacterial Biotransformation | Structure (SMILES) |
| --- | --- |
| Compound NOT metabolized | NC12CC3CC(CC(C3)C1)C2 [AMANTADINE] |
| Compound NOT metabolized | CN1CCc2c(c3ccccc3n2Cc2ccccc2)C1.CN1CCc2c(c3ccccc3n2Cc2ccccc2)C1.O=S(=O)(O)c1cccc2c(S(=O)(=O)O)cccc12 |
| Compound metabolized | COC1=CC(=O)C[C@@H](C)[C@]12Oc1c(Cl)c(OC)cc(OC)c1C2=O [GRISEOFULVIN] |

The remaining lines, values behind:

| Structure (SMILES) | Bacterial Biotransformation |
| --- | --- |
| CC(CN(C)C)CN1c2ccccc2CCc2ccccc21.O=C(O)/C=C\C(=O)O (stereo not given) [TRIMIPRAMINE MALEATE] | Compound NOT metabolized |
| CN1CCC(=C2c3ccccc3CCc3cccnc32)CC1.O=C(O)/C=C\C(=O)O.O=C(O)/C=C\C(=O)O [AZATADINE MALEATE] | Compound NOT metabolized |

Details: human gut metagenome, 24 h, 2 µM
Remark: another data set of the same source

| Bacterial Biotransformation | Structure (SMILES) |
| --- | --- |
| Compound NOT metabolized | NC12CC3CC(CC(C3)C1)C2 [AMANTADINE] |
| Compound NOT metabolized | CN1CCc2c(c3ccccc3n2Cc2ccccc2)C1.CN1CCc2c(c3ccccc3n2Cc2ccccc2)C1.O=S(=O)(O)c1cccc2c(S(=O)(=O)O)cccc12 |
| Compound metabolized | COC1=CC(=O)C[C@@H](C)[C@]12Oc1c(Cl)c(OC)cc(OC)c1C2=O [GRISEOFULVIN] |

Further lines, the compound ahead of its results:

| Structure (SMILES) | Bacterial Biotransformation |
| --- | --- |
| CC(CN(C)C)CN1c2ccccc2CCc2ccccc21.O=C(O)/C=C\C(=O)O (stereo not given) [TRIMIPRAMINE MALEATE] | Compound NOT metabolized |
| CN1CCC(=C2c3ccccc3CCc3cccnc32)CC1.O=C(O)/C=C\C(=O)O.O=C(O)/C=C\C(=O)O [AZATADINE MALEATE] | Compound NOT metabolized |

Details: human gut metagenome, 24 h, 2 µM
Remark: another data set of the same source

| Bacterial Biotransformation | Structure (SMILES) |
| --- | --- |
| Compound NOT metabolized | NC12CC3CC(CC(C3)C1)C2 [AMANTADINE] |
| Compound NOT metabolized | CN1CCc2c(c3ccccc3n2Cc2ccccc2)C1.CN1CCc2c(c3ccccc3n2Cc2ccccc2)C1.O=S(=O)(O)c1cccc2c(S(=O)(=O)O)cccc12 |
| Compound metabolized | COC1=CC(=O)C[C@@H](C)[C@]12Oc1c(Cl)c(OC)cc(OC)c1C2=O [GRISEOFULVIN] |

The remaining lines, values behind:

| Structure (SMILES) | Bacterial Biotransformation |
| --- | --- |
| CC(CN(C)C)CN1c2ccccc2CCc2ccccc21.O=C(O)/C=C\C(=O)O (stereo not given) [TRIMIPRAMINE MALEATE] | Compound NOT metabolized |
| CN1CCC(=C2c3ccccc3CCc3cccnc32)CC1.O=C(O)/C=C\C(=O)O.O=C(O)/C=C\C(=O)O [AZATADINE MALEATE] | Compound NOT metabolized |

Details: human gut metagenome, 24 h, 2 µM
Remark: another data set of the same source

| Bacterial Biotransformation | Structure (SMILES) |
| --- | --- |
| Compound NOT metabolized | NC12CC3CC(CC(C3)C1)C2 [AMANTADINE] |
| Compound NOT metabolized | CN1CCc2c(c3ccccc3n2Cc2ccccc2)C1.CN1CCc2c(c3ccccc3n2Cc2ccccc2)C1.O=S(=O)(O)c1cccc2c(S(=O)(=O)O)cccc12 |
| Compound metabolized | COC1=CC(=O)C[C@@H](C)[C@]12Oc1c(Cl)c(OC)cc(OC)c1C2=O [GRISEOFULVIN] |

Further lines, the compound ahead of its results:

| Structure (SMILES) | Bacterial Biotransformation |
| --- | --- |
| CC(CN(C)C)CN1c2ccccc2CCc2ccccc21.O=C(O)/C=C\C(=O)O (stereo not given) [TRIMIPRAMINE MALEATE] | Compound metabolized |
| CN1CCC(=C2c3ccccc3CCc3cccnc32)CC1.O=C(O)/C=C\C(=O)O.O=C(O)/C=C\C(=O)O [AZATADINE MALEATE] | Compound NOT metabolized |
